Assay results taken from patent US20240109853A1 (Shanghai Yao Yuan Biotechnology Co., Ltd., priority 2020, published 2024).
Counter-ions that a name gives are not always drawn.

Target: ALPK1 (Homo sapiens (Human), UniProt Q96QP1)
Assay: ALPK1 in vitro kinase assay (HTRF of TIFA phosphorylation)
Type: biochemical
Details: ALPK1 2 nM, TIFA substrate, ADP-Heptose activator, HTRF readout

ALPK1, sequence (Q96QP1 whole entry): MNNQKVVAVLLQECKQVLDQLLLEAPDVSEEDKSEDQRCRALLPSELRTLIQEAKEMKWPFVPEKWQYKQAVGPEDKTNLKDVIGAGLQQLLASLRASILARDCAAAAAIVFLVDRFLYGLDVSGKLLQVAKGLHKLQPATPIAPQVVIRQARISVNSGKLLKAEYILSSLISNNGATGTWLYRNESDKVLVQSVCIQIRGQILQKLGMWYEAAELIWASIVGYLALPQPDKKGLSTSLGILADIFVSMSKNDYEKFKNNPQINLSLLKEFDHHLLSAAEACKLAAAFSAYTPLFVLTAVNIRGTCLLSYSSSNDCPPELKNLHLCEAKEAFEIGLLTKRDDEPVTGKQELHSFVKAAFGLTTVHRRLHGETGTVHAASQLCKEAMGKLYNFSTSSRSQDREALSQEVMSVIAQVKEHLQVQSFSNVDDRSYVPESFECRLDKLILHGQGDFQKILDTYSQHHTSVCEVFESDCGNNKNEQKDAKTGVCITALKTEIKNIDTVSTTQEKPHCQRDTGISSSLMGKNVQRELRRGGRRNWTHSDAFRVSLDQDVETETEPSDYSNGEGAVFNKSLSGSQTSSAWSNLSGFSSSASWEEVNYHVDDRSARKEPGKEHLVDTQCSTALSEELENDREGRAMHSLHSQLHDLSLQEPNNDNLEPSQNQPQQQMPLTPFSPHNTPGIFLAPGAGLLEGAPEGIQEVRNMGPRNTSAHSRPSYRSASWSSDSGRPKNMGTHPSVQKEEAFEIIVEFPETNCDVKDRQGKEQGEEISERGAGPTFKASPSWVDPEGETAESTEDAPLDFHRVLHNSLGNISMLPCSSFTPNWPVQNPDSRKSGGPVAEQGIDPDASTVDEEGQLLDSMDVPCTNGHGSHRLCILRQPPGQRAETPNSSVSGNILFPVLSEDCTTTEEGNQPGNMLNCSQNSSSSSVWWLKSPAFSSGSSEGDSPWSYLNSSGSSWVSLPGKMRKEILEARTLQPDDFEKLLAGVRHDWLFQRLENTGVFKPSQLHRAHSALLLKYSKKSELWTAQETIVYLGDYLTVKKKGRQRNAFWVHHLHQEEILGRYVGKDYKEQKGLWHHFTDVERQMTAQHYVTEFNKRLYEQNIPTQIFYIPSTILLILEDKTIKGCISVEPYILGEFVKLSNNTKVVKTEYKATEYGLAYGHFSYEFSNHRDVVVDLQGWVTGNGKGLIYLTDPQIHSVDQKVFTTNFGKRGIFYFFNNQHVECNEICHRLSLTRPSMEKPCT

In the case of `COc1ccc(C(C)(C)c2csc(NC(=O)c3ccc(NCCN(C)C)nc3)n2)cc1` [Example B056, 6-((2-(dimethylamino)ethyl)amino)-N-(4-(2-(4-methoxyphenyl)propan-2-yl)thiazol-2-yl)nicotinamide], the IC50 is reported as 0.12 µM.
For `COCCOc1cc(C(=O)Nc2nc(C(C)(C)c3ccc(OC)cc3)cs2)ccc1N1CCNCC1` [Example B057, 3-(2-methoxyethoxy)-N-(4-(2-(4-methoxyphenyl)propan-2-yl)thiazol-2-yl)-4-(piperazin-1-yl)benzamide hydrochloride], the IC50 was 0.103 µM.
For `Cc1ccc(C(C)(C)c2csc(NC(=O)c3ccc(CN4CCN(CCO)CC4)cc3)n2)cc1` [Example B058, 4-((4-(2-hydroxyethyl)piperazin-1-yl)methyl)-N-(4-(2-(p-tolyl)propan-2-yl)thiazol-2-yl)benzamide], the IC50 was 0.068 µM.
With `Cc1ccc(C(C)(C)c2csc(NC(=O)c3ccc(CN4CCN(CCO)CC4)nc3)n2)cc1` [Example B059, 6-((4-(2-hydroxyethyl)piperazin-1-yl)methyl)-N-(4-(2-(p-tolyl)propan-2-yl)thiazol-2-yl)nicotinamide] the IC50 was 0.159 µM.
`COc1ccc(C(C)(C)c2csc(NC(=O)c3ccc(NCCO)cc3)n2)cc1` [Example B060, 4-((2-hydroxyethyl)amino)-N-(4-(2-(4-methoxyphenyl)propan-2-yl)thiazol-2-yl)benzamide] was tested, and the IC50 was 0.28 µM.
With `C#CC(C)(c1ccc(Cl)cc1)c1csc(NC(=O)c2ccc(N3CCNCC3)nc2)n1` (stereo not drawn) [Example B061, N-(4-(2-(4-chlorophenyl)but-3-yn-2-yl)thiazol-2-yl)-6-(piperazin-1-yl)nicotinamide] the IC50 was 0.167 µM.
For `C#CC(C)(c1ccc(Cl)cc1)c1csc(NC(=O)c2ccc(N3CCNCC3)cc2)n1` (stereo not drawn) [Example B062, N-(4-(2-(4-chlorophenyl)but-3-yn-2-yl)thiazol-2-yl)-4-(piperazin-1-yl)benzamide], the IC50 was 0.012 µM.
In the case of `COc1ccc(C(C)(C)c2csc(NC(=O)c3ccc(OCC(C)O)cc3)n2)cc1` (stereo not drawn) [Example B063, 4-(2-hydroxypropoxy)-N-(4-(2-(4-methoxyphenyl)propan-2-yl)thiazol-2-yl)benzamide], the IC50 is reported as 0.245 µM.
`C#CC(C)(c1ccc(Cl)cc1)c1csc(NC(=O)c2c(F)ccc(OC)c2F)n1` (stereo not drawn) [Example B064, N-(4-(2-(4-chlorophenyl)but-3-yn-2-yl)thiazol-2-yl)-2,6-difluoro-3-methoxybenzamide] gave an IC50 of 0.054 µM.
Work on `C#CC(C)(c1ccc(Cl)cc1)c1csc(NC(=O)c2ccc(N3CCNCC3)cc2F)n1` (stereo not drawn) [Example B065, N-(4-(2-(4-chlorophenyl)but-3-yn-2-yl)thiazol-2-yl)-2-fluoro-4-(piperazin-1-yl)benzamide] yielded an IC50 of 0.215 µM.
In the case of `C#CC(C)(c1ccc(Cl)cc1)c1csc(NC(=O)c2ccc(N3CCNCC3)c(OC)c2)n1` (stereo not drawn) [Example B066, N-(4-(2-(4-chlorophenyl)but-3-yn-2-yl)thiazol-2-yl)-3-methoxy-4-(piperazin-1-yl)benzamide], the IC50 is reported as 0.184 µM.
`C#C[C@](C)(c1ccc(Cl)cc1)c1csc(NC(=O)c2ccc(N3CCNC(CO)C3)cc2)n1` (stereo partly drawn) [Example B078, N-(4-(2-(4-chlorophenyl)but-3-yn-2-yl)thiazol-2-y1)-4-(3-(hydroxymethyl)piperazin-1-yl)benzamide] showed an IC50 of 0.169 µM.
With `C#CC(C)(c1ccc(F)cc1)c1csc(NC(=O)c2ccc(N3CCNCC3)c(C(N)=O)c2)n1` (stereo not drawn) [Example B081, N1-(4-(2-(4-fluorophenyl)but-3-yn-2-yl)thiazol-2-yl)-4-(piperazin-1-yl)isophthalamide] the IC50 was 0.102 µM.
`C#CC(C)(c1ccc(F)cc1)c1csc(NC(=O)c2c(F)cc(N3CCNC(CO)C3)cc2F)n1` (stereo not drawn) [Example B082, 2,6-difluoro-N-(4-(2-(4-fluorophenyl)but-3-yn-2-yl)thiazol-2-yl)-4-(3-(hydroxymethyl)piperazin-1-yl)benzamide] gave an IC50 of 0.025 µM.
In the case of `C#CC(C)(c1ccc(Cl)cc1)c1csc(NC(=O)c2c(F)cc(N3CCNC(CO)C3)cc2F)n1` (stereo not drawn) [Example B083, N-(4-(2-(4-chlorophenyl)but-3-yn-2-yl)thiazol-2-yl)-2,6-difluoro-4-(3-(hydroxymethyl)piperazin-1-yl)benzamide], the IC50 is reported as 0.078 µM.
With `C#CC(C)(c1ccc(OC)cc1)c1csc(NC(=O)c2c(F)cc(N3CCNC(CO)C3)cc2F)n1` (stereo not drawn) [Example B084, 2,6-difluoro-4-(3-(hydroxymethyl)piperazin-1-yl)-N-(4-(2-(4-methoxyphenyl)but-3-yn-2-yl)thiazol-2-yl)benzamide] the IC50 was 0.028 µM.
For `C#C[C@](C)(c1ccc(Cl)cc1)c1csc(NC(=O)c2c(F)cc(N3CCC(N)C3)cc2F)n1` (stereo partly drawn) [Example B086], the IC50 was 0.286 µM.
With `C#CC(C)(c1ccc(Cl)cc1)c1csc(NC(=O)c2ccc(N3CCNCC3)cc2F)n1` (stereo not drawn) [Example B094, N-(4-(2-(4-chlorophenyl)but-3-yn-2-yl)thiazol-2-yl)-2-fluoro-4-(piperazin-1-yl)benzamide] the IC50 was 0.151 µM.
`C#CC(C)(c1ccc(Cl)cc1)c1csc(NC(=O)c2c(Cl)cc(N3CCNCC3)cc2Cl)n1` (stereo not drawn) [Example B096, 2,6-dichloro-N-(4-(2-(4-chlorophenyl)but-3-yn-2-yl)thiazol-2-yl)-4-(piperazin-1-yl)benzamide] showed an IC50 of 0.312 µM.
`C#CC(C)(c1ccc(Cl)cc1)c1csc(NC(=O)c2c(F)cc(N3CCNCC3CC)cc2F)n1` (stereo not drawn) [Example B101, N-(4-(2-(4-chlorophenyl)but-3-yn-2-yl)thiazol-2-yl)-4-(2-ethylpiperazin-1-yl)-2,6-difluorobenzamide] gave an IC50 of 0.07 µM.
`C#CC(C)(c1ccc(F)cc1)c1csc(NC(=O)c2c(F)cc(-c3cnn(C)c3N)cc2F)n1` (stereo not drawn) [Example B102, 4-(5-amino-1-methyl-1H-pyrazol-4-yl)-2,6-difluoro-N-(4-(2-(4-fluorophenyl)but-3-yn-2-yl)thiazol-2-yl)benzamide] gave an IC50 of 1.27 µM.
Molecule `C#CC(C)(c1ccc(F)cc1)c1csc(NC(=O)c2c(F)cc(-c3c[nH]n(C)c3=O)cc2F)n1` (stereo not drawn) [Example B103, 2,6-difluoro-N-(4-(2-(4-fluorophenyl)but-3-yn-2-yl)thiazol-2-yl)-4-(2-methyl-3-oxo-2,3-dihydro-1H-pyrazol-4-yl)benzamide] has an IC50 of 5.14 µM.
With `C#CC(C)(c1ccc(F)cc1)c1csc(NC(=O)c2c(F)cc(-c3cnc(CN)cn3)cc2F)n1` (stereo not drawn) [Example B104, 4-(5-(aminomethyl)pyrazin-2-yl)-2,6-difluoro-N-(4-(2-(4-fluorophenyl)but-3-yn-2-yl)thiazol-2-yl)benzamide] the IC50 was 1.47 µM.
Molecule `CC(c1ccc(Cl)cc1)c1csc(NC(=O)c2c(F)cc(N3CCNCC3)cc2F)n1` (stereo not drawn) [Example C003, N-(4-(1-(4-chlorophenyl)ethyl)thiazol-2-yl)-2,6-difluoro-4-(piperazin-1-yl)benzamide] has an IC50 of 0.011 µM.
`COCC(C)(c1ccccc1)c1csc(NC(=O)c2c(F)cc(N3CCNCC3)cc2F)n1` (stereo not drawn) [Example C004, 2,6-difluoro-N-(4-(1-methoxy-2-phenylpropan-2-yl)thiazol-2-yl)-4-(piperazin-1-yl)benzamide] gave an IC50 of 0.022 µM.
Molecule `CC(C)(c1ccc(F)cc1)c1csc(NC(=O)c2c(F)cc(N3CCNCC3)cc2F)n1` [Example C005, 2,6-difluoro-N-(4-(2-(4-fluorophenyl)propan-2-yl)thiazol-2-yl)-4-(piperazin-1-yl)benzamide] has an IC50 of 0.006 µM.
In the case of `O=C(Nc1nc(C2(c3ccc(Br)cc3)CCCC2)cs1)c1c(F)cc(N2CCNCC2)cc1F` [Example C006, N-(4-(1-(4-bromophenyl)cyclopentyl)thiazol-2-yl)-2,6-difluoro-4-(piperazin-1-yl)benzamide], the IC50 is reported as 0.043 µM.
In the case of `C#CC(C)(c1ccc(Cl)cc1)c1csc(NC(=O)c2c(F)cc(N3CCN(C)CC3)cc2F)n1` (stereo not drawn) [Example C009, N-(4-(2-(4-chlorophenyl)but-3-yn-2-yl)thiazol-2-yl)-2,6-difluoro-4-(4-methylpiperazin-1-yl)benzamide], the IC50 is reported as 0.007 µM.
With `C#C[C@](C)(c1ccc(Cl)cc1)c1csc(NC(=O)c2c(F)cc(N3CCN(C)CC3)cc2F)n1` [Example C010, (R)-N-(4-(2-(4-chlorophenyl)but-3-yn-2-yl)thiazol-2-yl)-2,6-difluoro-4-(4-methylpiperazin-1-yl)benzamide] the IC50 was 0.056 µM.
In the case of `CCOCC(C)(c1ccccc1)c1csc(NC(=O)c2c(F)cc(N3CCNCC3)cc2F)n1` (stereo not drawn) [Example C012, N-(4-(1-ethoxy-2-phenylpropan-2-yl)thiazol-2-yl)-2,6-difluoro-4-(piperazin-1-yl)benzamide], the IC50 is reported as 0.078 µM.
`COCC(C)(c1ccc(Br)cc1)c1csc(NC(=O)c2c(F)cc(N3CCNCC3)cc2F)n1` (stereo not drawn) [Example C014, N-(4-(2-(4-bromophenyl)-1-methoxypropan-2-yl)thiazol-2-yl)-2,6-difluoro-4-(piperazin-1-yl)benzamide] showed an IC50 of 0.013 µM.
`CN1CCN(c2cc(F)c(C(=O)Nc3nc(C4(c5ccc(Br)cc5)CCCC4)cs3)c(F)c2)CC1` [Example C015, N-(4-(1-(4-bromophenyl)cyclopentyl)thiazol-2-yl)-2,6-difluoro-4-(4-methylpiperazin-1-yl)benzamide] gave an IC50 of 0.266 µM.
`COC[C@](C)(c1ccccc1)c1csc(NC(=O)c2c(F)cc(N3CCNCC3)cc2F)n1` [Example C017, (R)-2,6-difluoro-N-(4-(1-methoxy-2-phenylpropan-2-yl)thiazol-2-yl)-4-(piperazin-1-yl)benzamide] gave an IC50 of 0.067 µM.
Molecule `C#C[C@@](C)(c1ccc(Cl)cc1)c1nc(NC(=O)c2c(F)cc(N3CCNCC3)cc2F)sc1Cl` [Example C020, (S)-N-(5-chloro-4-(2-(4-chlorophenyl)but-3-yn-2-yl)thiazol-2-yl)-2,6-difluoro-4-(piperazin-1-yl)benzamide] has an IC50 of 0.088 µM.
`COCC(C)(c1ccc(OC)cc1)c1csc(NC(=O)c2c(F)cc(N3CCNCC3)cc2F)n1` (stereo not drawn) [Example C021, 2,6-difluoro-N-(4-(1-methoxy-2-(4-methoxyphenyl)propan-2-yl)thiazol-2-yl)-4-(piperazin-1-yl)benzamide] gave an IC50 of 0.044 µM.
`C#C[C@](C)(c1ccc(Cl)cc1)c1csc(NC(=O)c2c(F)cc(N3CCN(CCO)CC3)cc2F)n1` [Example C022, (R)-N-(4-(2-(4-chlorophenyl)but-3-yn-2-yl)thiazol-2-yl)-2,6-difluoro-4-(4-(2-hydroxyethyl)piperazin-1-yl)benzamide] was tested, and the IC50 was 0.188 µM.
